Results: patent US4898859A, “2-Oxa-isocephem compounds and compositions containing same” (Otsuka Pharmaceutical Co., Ltd., priority 1987, dated 1990)
In brackets after ≈: the same amount, converted by molar mass. Where a name gives a salt, the structure may show the parent alone.

Experiments:
Format in all cases: cell-based
[1] = tested on: P. mirabilis 1287; experiment: antimicrobial activity in vitro, MIC by agar plate dilution method, P. mirabilis 1287; settings: Proteus mirabilis, inoculum 1×10^6 cells/ml, read-out: minimal inhibitory concentration (MIC)
Experimental: (§1) In order to investigate the in vitro activity of the under-mentioned compounds against various bacteria, the minimal inhibitory concentration (MIC) values were determined by the agar plate dilution method [see Chemotherapy, 22, 1126-1128 (1974)].
(§2) Each test inoculum was adjusted to 1×10^6 cells/ml (O.D., 600 mμ: 0.07-0.16).

[2] = tested on: E. coli NIHJ; experiment: antimicrobial activity in vitro, MIC by agar plate dilution method, E. coli NIHJ; settings: Escherichia coli, inoculum 1×10^6 cells/ml, read-out: minimal inhibitory concentration (MIC)
Experimental: as §1, §2

[3] = tested on: K. pneumoniae NCTC-9632; experiment: antimicrobial activity in vitro, MIC by agar plate dilution method, K. pneumoniae NCTC-9632; settings: Klebsiella pneumoniae, NCTC9632, inoculum 1×10^6 cells/ml, read-out: minimal inhibitory concentration (MIC)
Experimental: as §1, §2

[4] = tested on: P. aeruginosa NCTC-10490; experiment: antimicrobial activity in vitro, MIC by agar plate dilution method, P. aeruginosa NCTC-10490; settings: Pseudomonas aeruginosa, NCTC10490, inoculum 1×10^6 cells/ml, read-out: minimal inhibitory concentration (MIC)
Experimental: as §1, §2

[5] = tested on: S. aureus FDA-209-p; experiment: antimicrobial activity in vitro, MIC by agar plate dilution method, S. aureus FDA-209-p; settings: Staphylococcus aureus, FDA209, inoculum 1×10^6 cells/ml, read-out: minimal inhibitory concentration (MIC)
Experimental: as §1, §2

[6] = tested on: S. marcescens IFO-12648; experiment: antimicrobial activity in vitro, MIC by agar plate dilution method, S. marcescens IFO-12648; settings: Serratia marcescens, IFO12648, inoculum 1×10^6 cells/ml, read-out: minimal inhibitory concentration (MIC)
Experimental: as §1, §2

[7] = tested on: E. coli No. 29; experiment: antimicrobial activity in vitro, MIC by agar plate dilution method, E. coli No. 29; settings: Escherichia coli, inoculum 1×10^6 cells/ml, read-out: minimal inhibitory concentration (MIC)
Experimental: as §1, §2

[8] = tested on: M. morganii ATCC-25830; experiment: antimicrobial activity in vitro, MIC by agar plate dilution method, M. morganii ATCC-25830; settings: Morganella morganii, ATCC25830, inoculum 1×10^6 cells/ml, read-out: minimal inhibitory concentration (MIC)
Experimental: as §1, §2

Row | Compound | MIC [1] [µg/mL] | MIC [2] [µg/mL] | MIC [3] [µg/mL] | MIC [4] [µg/mL] | MIC [5] [µg/mL] | MIC [6] [µg/mL] | MIC [7] [µg/mL] | MIC [8] [µg/mL]
1 | Nc1nc(/C(=N/OC2CCCC2)C(=O)N[C@@H]2C(=O)N3C(C(=O)[O-])=C(CSc4cc[n+](CC(=O)NO)cc4)OC[C@H]23)cs1 [No. 9, (6S,7S)-7-[2-(2-Aminothiazol-4-yl)-2-cyclopentyloxyiminoacetamido]-3-[(1-hydroxyaminocarbonylmethyl-4-pyridinio)thiomethyl]-Δ^3 -O-2-isocephem-4-carboxylate (syn-isomer)] | 0.2 (≈ 0.324 µM) | 0.2 (≈ 0.324 µM) | 0.39 (≈ 0.631 µM) | 3.13 (≈ 5.07 µM) | 0.39 (≈ 0.631 µM) | 1.56 (≈ 2.53 µM) | 0.1 (≈ 0.162 µM) | 0.05 (≈ 0.0809 µM)
2 | Nc1nc(/C(=N/OC2CCCC2)C(=O)N[C@@H]2C(=O)N3C(C(=O)[O-])=C(CSc4cc[n+](CCF)cc4)OC[C@H]23)cs1 [No. 13, (6S,7S)-7-[2-(2-Aminothiazol-4-yl)-2-cyclopentyloxyiminoacetamido]-3-[[1-(2-fluoroethyl)-4-pyridinio]thiomethyl]-Δ^3 -O-2-isocephem-4-carboxylate (syn-isomer)] | 0.2 (≈ 0.339 µM) | 0.2 (≈ 0.339 µM) | 0.39 (≈ 0.66 µM) | 0.78 (≈ 1.32 µM) | 0.1 (≈ 0.169 µM) | 1.56 (≈ 2.64 µM) | 0.1 (≈ 0.169 µM) | 0.05 (≈ 0.0847 µM)
3 | Nc1nc(/C(=N/OC2CCCC2)C(=O)N[C@@H]2C(=O)N3C(C(=O)[O-])=C(CSc4cc[n+](CC(=O)N5CCNCC5)cc4)OC[C@H]23)cs1 [No. 8, (6S,7S)-7-[2-(2-Aminothiazol-4-yl)-2-cyclopentyloxyiminoacetamido]-3-[[1-(1-piperazinylcarbonylmethyl)-4-pyridinio]thiomethyl]-Δ^3 -O-2-isocephem-4-carboxylate (syn-isomer)] | 0.39 (≈ 0.581 µM) | 0.2 (≈ 0.298 µM) | 0.2 (≈ 0.298 µM) | 0.78 (≈ 1.16 µM) | 0.2 (≈ 0.298 µM) | 0.78 (≈ 1.16 µM) | 0.1 (≈ 0.149 µM) | 0.1 (≈ 0.149 µM)
4 | Nc1nc(/C(=N/OC2CCCC2)C(=O)N[C@@H]2C(=O)N3C(C(=O)[O-])=C(CSc4cc[n+](CC(=O)N5CCCC5)cc4)OC[C@H]23)cs1 [No. 3, (6S,7S)-7-[2-(2-Aminothiazol-4-yl)-2-cyclopentyloxyiminoacetamido]-3-[[1-(1-pyrrolidinylcarbonylmethyl)-4-pyridinio]thiomethyl]-Δ^3 -O-2-isocephem-4-carboxylic acid sulfate (syn-isomer)] | 0.2 | 0.2 | 0.39 | 0.78 | 0.1 | 0.78 | 0.1 | 0.05
5 | CO/N=C(\C(=O)N[C@@H]1C(=O)N2C(C(=O)[O-])=C(CSc3cc[n+](CC(=O)N4CCCC4)cc3)OC[C@H]12)c1csc(N)n1 [No. 2, (6S,7S)-7-[2-(2-Aminothiazol-4-yl)-2-methoxyiminoacetamido]-3-[[1-(1-pyrrolidinylcarbonylmethyl)-4pyridinio]thiomethyl]-Δ^3 -O-2-isocephem-4-carboxylate (syn-isomer)] | ≤ 0.025 | ≤ 0.025 | ≤ 0.025 | 1.56 (≈ 2.59 µM) | 0.2 (≈ 0.332 µM) | 0.1 (≈ 0.166 µM) | ≤ 0.025 | ≤ 0.025
6 | CO/N=C(\C(=O)N[C@@H]1C(=O)N2C(C(=O)[O-])=C(CSc3cc[n+](CCF)cc3)OC[C@H]12)c1csc(N)n1 [No. 14, (6S,7S)-7-[2-(2-Aminothiazol-4-yl)-2-methoxyiminoacetamido]-3-[[1-(2-fluoroethyl)-4-pyridinio]thiomethyl]-Δ^3 -O-2-isocephem-4-carboxylate (syn-isomer)] | ≤ 0.025 | ≤ 0.025 | ≤ 0.025 | 1.56 (≈ 2.91 µM) | 0.2 (≈ 0.373 µM) | 0.1 (≈ 0.186 µM) | ≤ 0.025 | ≤ 0.025
7 | CCC(=O)C[n+]1ccc(SCC2=C(C(=O)[O-])N3C(=O)[C@@H](NC(=O)/C(=N\OC4CCCC4)c4csc(N)n4)[C@H]3CO2)cc1 [No. 7, (6S,7S)-7-[2-(2-Aminothiazol-4-yl)-2-cyclopentyloxyiminoacetamido]-3-[(1-propanoylmethyl-4-pyridinio)thiomethyl] -Δ^3 -O-2-isocephem-4-carboxylic acid sulfate (syn-isomer)] | 0.1 | 0.2 | 0.39 | 0.78 | 0.1 | 0.78 | 0.1 | 0.05
8 | CO/N=C(\C(=O)N[C@@H]1C(=O)N2C(C(=O)[O-])=C(CSc3cc[n+](CC(=O)N4CCOCC4)cc3)OC[C@H]12)c1csc(N)n1 [No. 10, (6S,7S)-7-[2-(2-Aminothiazol-4-yl)-2-methoxyiminoacetamido]-3-[(1-morpholinocarbonylmethyl-4pyridinio)thiomethyl]-Δ^3 -O-2-isocephem-4-carboxylate (syn-isomer)] | ≤ 0.025 | ≤ 0.025 | ≤ 0.025 | 6.25 (≈ 10.1 µM) | 0.2 (≈ 0.324 µM) | 0.1 (≈ 0.162 µM) | ≤ 0.025 | ≤ 0.025
9 | CO/N=C(\C(=O)N[C@@H]1C(=O)N2C(C(=O)[O-])=C(CSc3cc[n+](CC(=O)N(C)C)cc3)OC[C@H]12)c1csc(N)n1 [No. 6, (6S,7S)-7-[2-(2-Aminothiazol-4-yl)-2-methoxyiminoacetamido]-3-[(1-N,N-dimethylcarbamoylmethyl-4-pyridinio)thiomethyl]-Δ^3 -O-2-isocephem-4-carboxylic acid sulfate (syn-isomer)] | ≤ 0.025 | ≤ 0.025 | ≤ 0.025 | 3.13 | 0.2 | 0.2 | ≤ 0.025 | ≤ 0.025
10 | Nc1nc(/C(=N/OC2CCCC2)C(=O)N[C@@H]2C(=O)N3C(C(=O)[O-])=C(CSc4cc[n+](CCl)cc4)OC[C@H]23)cs1 [No. 11, (6S,7S)-7-[2-(2-Aminothiazol-4-yl)-2-cyclopentyloxyiminoacetamido]-3-[(1-chloromethyl-4-pyridinio)thiomethyl]-Δ^3 -O-2-isocephem-4-carboxylate (syn-isomer)] | 0.2 (≈ 0.337 µM) | 0.2 (≈ 0.337 µM) | 0.39 (≈ 0.658 µM) | 1.56 (≈ 2.63 µM) | 0.1 (≈ 0.169 µM) | 0.78 (≈ 1.32 µM) | 0.1 (≈ 0.169 µM) | 0.05 (≈ 0.0843 µM)
11 | Nc1nc(/C(=N/OC2CCCC2)C(=O)N[C@@H]2C(=O)N3C(C(=O)[O-])=C(CSc4cc[n+](CC5CC5)cc4)OC[C@H]23)cs1 [No. 12, (6S,7S)-7-[2-(2-Aminothiazol-4-yl)-2-cyclopentyloxyiminoacetamido]-3-[(1-cyclopropylmethyl-4-pyridinio)thiomethyl]-Δ^3 -O-2- -isocephem-4-carboxylic acid ditrifluoroacetate (syn-isomer)] | 0.1 (≈ 0.167 µM) | 0.1 (≈ 0.167 µM) | 0.2 (≈ 0.334 µM) | 0.39 (≈ 0.651 µM) | 0.05 (≈ 0.0835 µM) | 0.78 (≈ 1.3 µM) | 0.05 (≈ 0.0835 µM) | 0.05 (≈ 0.0835 µM)
12 | CN(C)C(=O)C[n+]1ccc(SCC2=C(C(=O)[O-])N3C(=O)[C@@H](NC(=O)/C(=N\OC4CCCC4)c4csc(N)n4)[C@H]3CO2)cc1 [No. 4, (6S,7S)-7-[2-(2-Aminothiazol-4-yl)-2-cyclopentyloxyiminoacetamido]-3-[(1-N,N-dimethylcarbamoylmethyl4-pyridinio)thiomethyl]-Δ^3 -O-2-isocephem-4-carboxylic acid sulfate (syn-isomer)] | 0.2 | 0.2 | 0.39 | 1.56 | 0.1 | 1.56 | 0.1 | 0.05
13 | CO/N=C(\C(=O)N[C@@H]1C(=O)N2C(C(=O)[O-])=C(CSc3cc[n+](CC(=O)c4ccccc4)cc3)OC[C@H]12)c1csc(N)n1 [No. 1, (6S,7S)-7-[2-(2-Aminothiazol-4-yl)-2-methoxyiminoacetamido]-3-[(1-benzoylmethyl-4-pyridinio)thiomethyl]-Δ^3 -O-2-isocephem-4-carboxylate (syn-isomer)] | 0.05 (≈ 0.0821 µM) | 0.05 (≈ 0.0821 µM) | 0.05 (≈ 0.0821 µM) | 1.56 (≈ 2.56 µM) | 0.05 (≈ 0.0821 µM) | 0.1 (≈ 0.164 µM) | ≤ 0.025 | 0.05 (≈ 0.0821 µM)
14 | C[n+]1ccc(SCC2=C(C(=O)[O-])N3C(=O)[C@@H](NC(=O)/C(=N\OCC(N)=O)c4csc(N)n4)[C@H]3CO2)cc1 [No. 5, (6S,7S)-7-[2-(2-Aminothiazol-4-yl)-2-carbamoylmethoxyiminoacetamido]-3-[(1-methyl-4-pyridinio)thiomethyl]-Δ^3 -O-2-isocephem-4-carboxylate (syn-isomer)] | ≤ 0.025 | ≤ 0.025 | ≤ 0.025 | 12.5 (≈ 22.8 µM) | 0.2 (≈ 0.365 µM) | 0.1 (≈ 0.183 µM) | ≤ 0.025 | ≤ 0.025
